Where two headings read alike, the source gives them in different places.
Assays:
DHS1^WT [1] = target: T1, DHS1^WT (Arabidopsis thaliana, UniProt P29976); assay: DHS enzyme assay (colorimetric), recombinant DHS1^WT; type: biochemical; conditions: for effect on DHS1 activity (effector screening): FIG. 2D
T1 construct: without the predicted plastid transit peptide (amino acid residues; 49-525, 34-507, and 52-527, respectively); made in house; host or cells: E. coli Rosetta-2
Method: (§1) To generate recombinant DHS proteins the pET28a vectors carrying the A. thaliana DHS1 (AtDHS1), AtDHS2, or AtDHS3 WT sequence without the predicted plastid transit peptide (amino acid residues; 49-525, 34-507, and 52-527, respectively) were expressed in E. coli Rosetta-2 cells and purified using Ni-affinity chromatography, exactly as was conducted previously (9). To generate DHS proteins with individual sota mutations via site-directed mutagenesis, these pET28a plasmid templates were diluted by 500-fold, mixed with 0.04 U/μL Phusion DNA polymerase (Thermo Scientific), 0.2 mM deoxynucleoside triphosphates (dNTPs), 1× Phusion reaction buffer (Thermo Scientific), and 0.5 μM forward and reverse mutagenesis primers (Table 10). The PCR reaction was run using the following protocol: 98° C. for 30 s followed by 20 cycles of 10 s at 98° C., 20 s at 70° C., 4.5 min at 72° C. with a final extension at 72° C. for 10 min. The PCR products were purified using a QIAquick Gel Extraction Kit (QIAGEN), treated with FastDigest DpnI (Thermo Scientific) to digest methylated plasmid template DNA for 20 min at 37° C., and transformed into E. coli cells. The mutagenized pET28a plasmids were sequenced to confirm that no errors were introduced during the mutagenesis process.
(§2) The DHS enzyme assays were conducted using the colorimetric method that we recently described (9). Briefly, the enzyme solution (7.7 μl) containing 50 mM Hepes (pH 7.4) was preincubated with an effector molecule(s) at room temperature for 15 min. For assays using recombinant protein and enzyme fractions isolated from plant leaves, 0.01 to 0.1 μg and approximately 50 μg of proteins were used, respectively. After adding 0.5 μl of 0.1 M dithiothreitol, the samples were further incubated at room temperature for 15 min. During these incubations, the substrate solution containing 50 mM Hepes (pH 7.4), 2 mM MnCl2, 4 mM E4P, and 4 mM PEP at final concentration was preheated at 37° C. The enzyme reaction was started by adding 6.8 μl of the substrate solution, then incubated at 37° C. for 30 min, and terminated by adding 30 μl of 0.6 M trichloroacetic acid. After a brief centrifugation, 5 μl of 200 mM NaIO4 (sodium meta-periodate) in 9 N H3PO4 was added to oxidize the enzymatic product and to incubate at 25° C. for 20 min. To stop the oxidation reaction, 20 μl of 0.75 M NaAsO2 (sodium arsenite), which was dissolved in 0.5 M Na2SO4 and 0.05 M H2SO4, was added and immediately mixed. After 5 min of incubation at room temperature, one-third of the sample solution was transferred to a new tube to be mixed with 50 μl of 40 mM thiobarbituric acid and incubated at 99° C. for 15 min in a thermal cycler. The mixture was added to 600 μl of cyclohexanone in eight-strip solvent-resistant plastic tubes, mixed vigorously, and centrifuged at 4500 g for 3 min to separate water- and cyclohexanone-based layers for the extraction off the developed pink chromophore. The absorbance of the pink supernatant was read at 549 nm with the microplate reader (Infinite 200 PRO, TECAN) to calculate DAHP production with the molar extinction coefficient at 549 nm (ε=549 nm) of 4.5×10^4 M^−1 cm^−1. Reaction mixtures with boiled enzymes were run in parallel and used as negative controls to estimate the background signal.

DHS2^WT [2] = target: T2, DHS2^WT (Arabidopsis thaliana, UniProt Q00218); assay: DHS enzyme assay, recombinant DHS2^WT; type: biochemical; conditions: for effect on DHS2 activity (effector screening): FIG. 2D; for inhibition at 1000 µM: effector at 1 mM
T2 construct: without the predicted plastid transit peptide (amino acid residues; 49-525, 34-507, and 52-527, respectively); made in house; host or cells: E. coli Rosetta-2
T2 sequence (Q00218 34-507): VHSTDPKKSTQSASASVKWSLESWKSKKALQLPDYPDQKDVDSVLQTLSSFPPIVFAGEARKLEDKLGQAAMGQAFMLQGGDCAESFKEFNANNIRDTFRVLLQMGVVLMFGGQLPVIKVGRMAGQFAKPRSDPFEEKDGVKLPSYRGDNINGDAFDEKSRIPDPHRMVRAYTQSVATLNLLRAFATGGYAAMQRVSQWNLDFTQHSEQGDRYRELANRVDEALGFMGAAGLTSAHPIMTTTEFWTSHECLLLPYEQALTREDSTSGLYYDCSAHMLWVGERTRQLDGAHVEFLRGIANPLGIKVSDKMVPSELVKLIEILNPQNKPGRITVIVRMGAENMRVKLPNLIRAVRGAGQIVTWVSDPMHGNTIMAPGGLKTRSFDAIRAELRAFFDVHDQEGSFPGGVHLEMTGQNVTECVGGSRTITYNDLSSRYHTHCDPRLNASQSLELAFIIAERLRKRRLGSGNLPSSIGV
Method: as §1, §2

DHS1^B4 = target: T3, DHS1^B4 (Arabidopsis thaliana, UniProt P29976, G244R); assay: DHS enzyme assay, recombinant DHS1^B4; type: biochemical
T3 construct: without the predicted plastid transit peptide (amino acid residues; 49-525, 34-507, and 52-527, respectively); made in house; host or cells: E. coli
T3 sequence (P29976 49-525 G244R): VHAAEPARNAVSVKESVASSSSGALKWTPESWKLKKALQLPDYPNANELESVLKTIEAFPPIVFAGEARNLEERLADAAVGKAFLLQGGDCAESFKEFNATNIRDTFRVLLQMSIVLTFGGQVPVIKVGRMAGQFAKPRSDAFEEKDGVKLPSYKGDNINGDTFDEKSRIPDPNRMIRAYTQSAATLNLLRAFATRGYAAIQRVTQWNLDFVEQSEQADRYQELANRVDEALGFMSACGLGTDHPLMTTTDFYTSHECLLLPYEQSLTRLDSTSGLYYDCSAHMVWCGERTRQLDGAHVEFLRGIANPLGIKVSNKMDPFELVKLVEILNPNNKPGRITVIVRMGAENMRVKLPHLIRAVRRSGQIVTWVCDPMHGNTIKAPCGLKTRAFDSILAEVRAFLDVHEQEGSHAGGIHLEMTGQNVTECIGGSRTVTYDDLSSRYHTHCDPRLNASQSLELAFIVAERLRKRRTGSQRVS
Method: as §1, §2

[3] = target: T4, Arabidopsis thaliana DHS1 (SEQ ID NO:1) variant DHS1^B4 (sotaB4), G244R (Arabidopsis thaliana, UniProt P29976, G244R); assay: DHS enzyme assay with effector, DHS1 sotaB4; type: biochemical
T4 construct: without the predicted plastid transit peptide (amino acid residues; 49-525, 34-507, and 52-527, respectively); made in house; host or cells: E. coli
T4 sequence (P29976 49-525 G244R): as above
Method: as §1, §2

DHS1^WT [4] = target: T1, DHS1^WT; conditions: AAAs, chorismate, caffeate: from Yokoyama et al., Plant Cell, 2021, cited from earlier work
DHS2^WT [5] = target: T2, DHS2^WT; assay: Differential scanning fluorimetry (DSF) protein-ligand affinity analysis, DHS2^WT; type: binding; conditions: ligand at 1 mM
Method: (§3) To examine the impact of the sota mutations on the interaction between DHS and AAA effectors (FIG. 22), a differential scanning fluorimetry (DSF) analysis (48) was conducted using the recombinant DHS2^WT and DHS2^A4 proteins. […] The fluorescence signal was monitored during the stepwise increase in temperature (1° C. per minute from 25° C. to 95° C.). The Tm was calculated by nonlinear regression analysis using the Boltzmann sigmoidal equation (48).

DHS2^A4 [6] = target: T5, DHS2^A4 (Arabidopsis thaliana, UniProt Q00218, G222S); assay: Differential scanning fluorimetry (DSF) protein-ligand affinity analysis, DHS2^A4; type: binding; conditions: ligand at 1 mM
T5 construct: without the predicted plastid transit peptide (amino acid residues; 49-525, 34-507, and 52-527, respectively); made in house; host or cells: E. coli
T5 sequence (Q00218 34-507 G222S): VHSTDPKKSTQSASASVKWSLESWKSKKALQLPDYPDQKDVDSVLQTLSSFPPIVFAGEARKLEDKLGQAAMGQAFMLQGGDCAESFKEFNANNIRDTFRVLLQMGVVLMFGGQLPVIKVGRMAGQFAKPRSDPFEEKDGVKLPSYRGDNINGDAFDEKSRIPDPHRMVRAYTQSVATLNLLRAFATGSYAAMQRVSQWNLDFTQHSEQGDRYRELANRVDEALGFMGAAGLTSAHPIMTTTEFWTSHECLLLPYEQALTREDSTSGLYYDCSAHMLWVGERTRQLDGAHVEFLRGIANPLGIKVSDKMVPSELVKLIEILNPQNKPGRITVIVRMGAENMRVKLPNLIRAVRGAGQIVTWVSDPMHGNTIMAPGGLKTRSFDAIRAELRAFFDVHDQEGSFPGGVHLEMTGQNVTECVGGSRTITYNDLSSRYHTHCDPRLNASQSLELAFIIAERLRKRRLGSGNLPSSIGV
Method: as §3

DHS2^A11 = target: T6, DHS2^A11 (Arabidopsis thaliana, UniProt Q00218, A224T); assay: DHS enzyme assay, recombinant DHS2^A11; type: biochemical; conditions: effector up to 1 mM
T6 construct: without the predicted plastid transit peptide (amino acid residues; 49-525, 34-507, and 52-527, respectively); made in house; host or cells: E. coli
T6 sequence (Q00218 34-507 A224T): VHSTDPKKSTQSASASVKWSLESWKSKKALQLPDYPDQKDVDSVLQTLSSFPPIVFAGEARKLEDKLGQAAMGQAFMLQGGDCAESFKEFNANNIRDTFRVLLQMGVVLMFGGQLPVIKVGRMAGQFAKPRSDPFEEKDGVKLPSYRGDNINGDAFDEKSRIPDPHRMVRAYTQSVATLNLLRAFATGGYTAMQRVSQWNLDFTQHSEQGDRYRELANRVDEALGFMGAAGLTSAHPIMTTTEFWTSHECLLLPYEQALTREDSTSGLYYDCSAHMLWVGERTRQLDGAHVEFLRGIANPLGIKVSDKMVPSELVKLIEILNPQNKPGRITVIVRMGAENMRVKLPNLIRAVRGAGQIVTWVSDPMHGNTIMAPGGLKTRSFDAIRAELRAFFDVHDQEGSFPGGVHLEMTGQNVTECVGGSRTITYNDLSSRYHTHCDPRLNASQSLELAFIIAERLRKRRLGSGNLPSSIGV
Method: as §1, §2

DHS2^F1 = target: T7, DHS2^F1 (Arabidopsis thaliana, UniProt Q00218, L136F); assay: DHS enzyme assay, recombinant DHS2^F1; type: biochemical; conditions: effector up to 1 mM
T7 construct: without the predicted plastid transit peptide (amino acid residues; 49-525, 34-507, and 52-527, respectively); made in house; host or cells: E. coli
T7 sequence (Q00218 34-507 L136F): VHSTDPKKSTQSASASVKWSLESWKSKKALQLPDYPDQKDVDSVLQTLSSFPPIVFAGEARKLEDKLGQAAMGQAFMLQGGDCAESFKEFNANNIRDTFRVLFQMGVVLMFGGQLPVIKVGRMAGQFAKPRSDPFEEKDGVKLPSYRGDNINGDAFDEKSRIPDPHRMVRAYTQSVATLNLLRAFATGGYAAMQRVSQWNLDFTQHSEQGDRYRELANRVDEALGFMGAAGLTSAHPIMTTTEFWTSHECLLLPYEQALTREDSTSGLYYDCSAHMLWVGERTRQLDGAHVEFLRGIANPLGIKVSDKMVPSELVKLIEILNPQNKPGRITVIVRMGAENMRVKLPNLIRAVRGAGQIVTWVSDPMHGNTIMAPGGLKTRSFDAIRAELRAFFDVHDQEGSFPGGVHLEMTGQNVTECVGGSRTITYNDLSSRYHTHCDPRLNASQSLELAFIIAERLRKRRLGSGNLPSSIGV
Method: as §1, §2

DHS3^G1 = assay: DHS enzyme assay, recombinant DHS3^G1; type: biochemical, Arabidopsis thaliana
Method: as §1, with “To” for “To generate recombinant DHS proteins the pET28a vectors carrying the A. thaliana DHS1 (AtDHS1), AtDHS2, or AtDHS3 WT sequence without the predicted plastid transit peptide (amino acid residues; 49-525, 34-507, and 52-527, respectively) were expressed in E. coli Rosetta-2 cells and purified using Ni-affinity chromatography, exactly as was conducted previously (9). To”
(§4) The DHS enzyme assays were conducted using the colorimetric method that we recently described (9). Briefly, the enzyme solution (7.7 μl) containing 50 mM Hepes (pH 7.4) was preincubated with an effector molecule(s) at room temperature for 15 min. For assays using recombinant protein and enzyme fractions isolated from plant leaves, 0.01 to 0.1 μg and approximately 50 μg of proteins were used, respectively. After adding 0.5 μl of 0.1 M dithiothreitol, the samples were further incubated at room temperature for 15 min. During these incubations, the substrate solution containing 50 mM Hepes (pH 7.4), 2 mM MnCl2, 4 mM E4P, and 4 mM PEP at final concentration was preheated at 37° C. The enzyme reaction was started by adding 6.8 μl of the substrate solution, then incubated at 37° C. for 30 min, and terminated by adding 30 μl of 0.6 M trichloroacetic acid. After a brief centrifugation, 5 μl of 200 mM NaIO4 (sodium meta-periodate) in 9 N H3PO4 was added to oxidize the enzymatic product and to incubate at 25° C. for 20 min. To stop the oxidation reaction, 20 μl of 0.75 M NaAsO2 (sodium arsenite), which was dissolved in 0.5 M Na2SO4 and 0.05 M H2SO4, was added and immediately mixed. […]

DHS3^H1 = assay: DHS enzyme assay, recombinant DHS3^H1; type: biochemical, Arabidopsis thaliana
Method: as §1, with “To” for “To generate recombinant DHS proteins the pET28a vectors carrying the A. thaliana DHS1 (AtDHS1), AtDHS2, or AtDHS3 WT sequence without the predicted plastid transit peptide (amino acid residues; 49-525, 34-507, and 52-527, respectively) were expressed in E. coli Rosetta-2 cells and purified using Ni-affinity chromatography, exactly as was conducted previously (9). To”
as §4

[7] = target: T8, Arabidopsis thaliana DHS2 (SEQ ID NO:2) variant DHS2^A4 (sotaA4), G222S (Arabidopsis thaliana, UniProt Q00218, G222S); assay: Differential scanning fluorimetry protein-ligand affinity analysis, DHS2 sotaA4; type: binding; conditions: ligand at 1 mM
T8 construct: without the predicted plastid transit peptide (amino acid residues; 49-525, 34-507, and 52-527, respectively); made in house; host or cells: E. coli
T8 sequence (Q00218 34-507 G222S): as the sequence (Q00218 34-507 G222S) above
Method: (A) Simplified pathway map of AAAs and AAA-derived metabolites used in the effector screening. […] Data are means±SEM (n=3 independent assays).
as §3

DHS3^WT = conditions: AAAs: from Yokoyama et al., Plant Cell, 2021; cited from earlier work
[8] = target: T9, Arabidopsis thaliana DHS2 (AtDHS2), wild type (DHS2^WT), SEQ ID NO:2 (Arabidopsis thaliana, UniProt Q00218); conditions: reference 9; cited from earlier work
T9 construct: without the predicted plastid transit peptide (amino acid residues; 49-525, 34-507, and 52-527, respectively); made in house; host or cells: E. coli Rosetta-2
T9 sequence (Q00218 34-507): as the sequence (Q00218 34-507) above

DHS2^A4 [9] = target: T5, DHS2^A4; type: biochemical; conditions: effector up to 1 mM
Method: as §1, §2

[10] = target: T8, Arabidopsis thaliana DHS2 (SEQ ID NO:2) variant DHS2^A4 (sotaA4), G222S; assay: biochemical; type: biochemical; conditions: up to 1 mM Tyr, Trp (FIG. 2C); shikimate, arogenate, prephenate at 1 mM (FIG. 21A)
Method: as §1, §2

[11] = target: T10, Arabidopsis thaliana DHS1 (AtDHS1), wild type (DHS1^WT), SEQ ID NO:1 (Arabidopsis thaliana, UniProt P29976); assay: DHS enzyme assay with effector, Arabidopsis DHS1 WT; type: biochemical; conditions: effector screening (FIG. 2D)
T10 construct: without the predicted plastid transit peptide (amino acid residues; 49-525, 34-507, and 52-527, respectively); made in house; host or cells: E. coli Rosetta-2
T10 sequence (P29976 49-525): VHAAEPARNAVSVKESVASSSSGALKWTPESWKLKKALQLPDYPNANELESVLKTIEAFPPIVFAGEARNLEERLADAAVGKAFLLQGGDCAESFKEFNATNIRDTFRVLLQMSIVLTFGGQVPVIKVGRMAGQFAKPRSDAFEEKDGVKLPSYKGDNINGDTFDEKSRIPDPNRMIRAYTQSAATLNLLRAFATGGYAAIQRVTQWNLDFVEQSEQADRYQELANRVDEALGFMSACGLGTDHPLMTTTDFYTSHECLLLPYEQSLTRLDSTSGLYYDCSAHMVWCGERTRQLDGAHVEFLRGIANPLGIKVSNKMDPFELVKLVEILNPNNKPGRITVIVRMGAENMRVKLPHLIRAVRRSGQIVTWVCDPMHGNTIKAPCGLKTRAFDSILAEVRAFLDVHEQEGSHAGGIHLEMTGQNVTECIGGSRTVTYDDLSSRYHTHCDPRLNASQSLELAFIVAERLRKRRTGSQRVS
Method: as §1, with “To” for “To generate recombinant DHS proteins the pET28a vectors carrying the A. thaliana DHS1 (AtDHS1), AtDHS2, or AtDHS3 WT sequence without the predicted plastid transit peptide (amino acid residues; 49-525, 34-507, and 52-527, respectively) were expressed in E. coli Rosetta-2 cells and purified using Ni-affinity chromatography, exactly as was conducted previously (9). To”
as §4

T1 sequence (P29976 49-525): as above

Nc1ccccc1C(=O)[O-].[Na+] [Anthranilate]
effect on DHS1 activity (effector screening) (DHS1^WT [1]): did not affect the activity | effect on DHS2 activity (effector screening) (DHS2^WT [2]): slight reduction

O=C(O)/C=C/c1ccc(O)c(O)c1 [Caffeate]
inhibition of DHS1^B4 activity (DHS1^B4): still strongly inhibited | IC50 (DHS1^B4; read-out: IC50 of effector molecule on DHS1^B4): 65.2 µM | IC50 [3]: 65.2 µM | IC50 (DHS1^WT [4]; read-out: IC50 of effector molecule on DHS1^WT): 108 µM

O=C(O)Cc1c[nH]c2ccccc12 [IAA, indole-3-acetate]
effect on DHS1 activity (effector screening) (DHS1^WT [1]): inhibit | effect on DHS2 activity (effector screening) (DHS2^WT [2]): inhibit

O=C(O)CCc1c[nH]c2ccccc12 [Indole-3-propionic acid]
IC50 (DHS1^WT [1]): 2060 µM | IC50 (DHS1^B4): 2000 µM

N[C@@H](Cc1ccccc1)C(=O)O [Phe, phenylalanine]
effect on melting temperature (Tm) of DHS2^WT (DHS2^WT [5]): no impact on the Tm | effect on melting temperature (Tm) / binding of DHS2^A4 (DHS2^A4 [6]): no impact on the Tm

N[C@@H](Cc1ccc(O)cc1)C(=O)O [Tyr, tyrosine]
IC50 of effector molecule on DHS1^B4 (DHS1^B4; recombinant enzyme): Not inhibited | inhibition of DHS2^A11 activity (DHS2^A11): not inhibited | inhibition of DHS2^F1 activity (DHS2^F1): not inhibited | IC50 of effector molecule on DHS3^G1 (DHS3^G1): Not inhibited | IC50 of effector molecule on DHS3^H1 (DHS3^H1): Not inhibited | binding (DSF) [7]: still binds Tyr and Trp | IC50 of effector molecule on DHS1^WT (DHS1^WT [4]): Not inhibited | IC50 of effector molecule on DHS3^WT (DHS3^WT): Not inhibited | inhibition of DHS2 [8]: inhibit Arabidopsis DHS2

OCCc1ccc(O)cc1 [Tyrosol]
inhibition at 1000 µM (DHS2^WT [2]): ~30%

N[C@@H](CC1(C(=O)O)C=CC(O)C=C1)C(=O)O (stereo partly drawn) [arogenate]
inhibition of DHS2^A4 activity (DHS2^A4 [9]): still inhibited | inhibition of DHS2^A4 [10]: still inhibited | inhibition of DHS2 [8]: slightly inhibit DHS2

c1ccc2[nH]ccc2c1 [indole]
inhibition of DHS1^WT activity [11]: did not affect the activity of DHS1

O=C(O)C(=O)CC1(C(=O)O)C=CC(O)C=C1 (stereo not drawn) [prephenate]
inhibition of DHS2^A4 activity (DHS2^A4 [9]): still inhibited | inhibition of DHS2^A4 [10]: still inhibited | inhibition of DHS2 [8]: slightly inhibit DHS2

O=C(O)C1=C[C@@H](O)[C@@H](O)[C@H](O)C1 [shikimate]
inhibition of DHS2^A4 activity (DHS2^A4 [9]): still inhibited | inhibition of DHS2^A4 [10]: still inhibited | inhibition of DHS2 [8]: slightly inhibit DHS2

NCCc1c[nH]c2ccccc12 [tryptamine]
effect on DHS1 activity (effector screening) (DHS1^WT [1]): did not affect the activity | effect on DHS2 activity (effector screening) (DHS2^WT [2]): slight reduction | inhibition of DHS1^WT activity [11]: did not affect the activity of DHS1

NCCc1ccc(O)cc1 [tyramine]
inhibition at 1000 µM (DHS2^WT [2]): ~30%
